Measured values reported in PubChem BioAssay AID248 (DTP/NCI, 2004).
Several values for one entry are separate records, joined by “and”; a condition that tells them apart may be missing. Equal entries are not always repeated. Toxic doses and inconclusive results are not listed.

Tested on: L1210 leukemia ip in BDF1 mice, survival T/C
Assay: NCI In Vivo Anticancer Drug Screen. Data for tumor model L1210 Leukemia (intraperitoneal) in B6D2F1 (BDF1) mice
Conditions: endpoint: mean survival time, higher = longer survival
Procedure, shortened: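 Tumor was transplanted into mice, which were then dosed with test compound or vehicle alone. Survival was recorded for each group, and the treated figure was expressed relative to the control figure.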

[1] = dose: 75.0 mg/kg/injection, schedule: Q01DX001 (ip), vehicle: carboxymethylcellulose (CMC)
[2] = dose: 150.0 mg/kg/injection, schedule: Q01DX001 (ip), vehicle: carboxymethylcellulose (CMC)
[3] = dose: 100.0 mg/kg/injection, schedule: Q01DX009 (ip), vehicle: Klucel (hydroxypropylcellulose) (HPC)
[4] = dose: 200.0 mg/kg/injection, schedule: Q01DX009 (ip), vehicle: Klucel (hydroxypropylcellulose) (HPC)
[5] = dose: 400.0 mg/kg/injection, schedule: Q01DX009 (ip), vehicle: Klucel (hydroxypropylcellulose) (HPC)
[6] = dose: 100.0 mg/kg/injection, schedule: Q01DX009 (ip), vehicle: saline with Tween-80
[7] = dose: 200.0 mg/kg/injection, schedule: Q01DX009 (ip), vehicle: saline with Tween-80
[8] = dose: 400.0 mg/kg/injection, schedule: Q01DX009 (ip), vehicle: saline with Tween-80
[9] = dose: 25.0 mg/kg/injection, schedule: Q01DX009 (ip), vehicle: saline
[10] = dose: 50.0 mg/kg/injection, schedule: Q01DX009 (ip), vehicle: saline
[11] = dose: 100.0 mg/kg/injection, schedule: Q04DX003 (ip), vehicle: saline
[12] = dose: 100.0 mg/kg/injection, schedule: Q01DX001 (ip), vehicle: carboxymethylcellulose (CMC)
[13] = dose: 200.0 mg/kg/injection, schedule: Q01DX001 (ip), vehicle: carboxymethylcellulose (CMC)
[14] = dose: 400.0 mg/kg/injection, schedule: Q01DX001 (ip), vehicle: carboxymethylcellulose (CMC)
[15] = dose: 100.0 mg/kg/injection, schedule: Q04DX003 (ip), vehicle: Klucel (hydroxypropylcellulose) (HPC)
[16] = dose: 200.0 mg/kg/injection, schedule: Q04DX003 (ip), vehicle: Klucel (hydroxypropylcellulose) (HPC)
[17] = dose: 400.0 mg/kg/injection, schedule: Q04DX003 (ip), vehicle: Klucel (hydroxypropylcellulose) (HPC)

## CCCCC(=O)OCC(=O)[C@]1(O)Cc2c(O)c3c(c(O)c2[C@@H](OC2CC(NC(=O)C(F)(F)F)C(O)C(C)O2)C1)C(=O)c1c(OC)cccc1C3=O (stereo not given in full)
dose: 7.5 mg/kg/injection, schedule: Q01DX004 (ip), vehicle: saline with Tween-80
  T/C: 108 % of control and 112 % of control
dose: 10.0 mg/kg/injection, schedule: Q01DX004 (ip), vehicle: saline with Tween-80
  T/C: 117 % of control and 119 % of control and 120 % of control
dose: 30.0 mg/kg/injection, schedule: Q01DX004 (ip), vehicle: saline with Tween-80
  T/C: 166 % of control
dose: 40.0 mg/kg/injection, schedule: Q01DX004 (ip), vehicle: other
  T/C: 164 % of control and 375 % of control
dose: 50.0 mg/kg/injection, schedule: Q01DX004 (ip), vehicle: other
  T/C: 372 % of control and 470 % of control
dose: 60.0 mg/kg/injection, schedule: Q01DX004 (ip), vehicle: other
  T/C: 177 % of control and 441 % of control

## O=C(O)c1cccc2c1C(=O)c1cc([N+](=O)[O-])ccc1-2
[1]
  T/C: 101 % of control
[2]
  T/C: 105 % of control

## C=CCCn1cc(C)c(=O)[nH]c1=O
[3]
  T/C: 103 % of control
[4]
  T/C: 116 % of control
[5]
  T/C: 100 % of control

## CC1=NCCN1CCNC(=O)c1ccc(C(=O)NCCN2CCN=C2C)cc1
dose: 5.0 mg/kg/injection, schedule: Q01DX001 (ip), vehicle: saline
  T/C: 103 % of control
dose: 10.0 mg/kg/injection, schedule: Q01DX001 (ip), vehicle: saline
  T/C: 101 % of control

## C(CC1CCNCC1)CC1CCNCC1
dose: 10.0 mg/kg/injection, schedule: Q01DX Z (ip), vehicle: saline
  T/C: 96 % of control
dose: 30.0 mg/kg/injection, schedule: Q01DX Z (ip), vehicle: saline
  T/C: 96 % of control

## CCOC(=O)c1ccc(N(CC(=O)CN=[N+]=[N-])S(=O)(=O)c2ccc(C)cc2)cc1
[6]
  T/C: 96 % of control
[7]
  T/C: 96 % of control
[8]
  T/C: 89 % of control

## O=C(Nc1cccc(C(F)(F)F)c1)OCCOc1ccc(Br)cc1
[3]
  T/C: 98 % of control
[4]
  T/C: 96 % of control
[5]
  T/C: 92 % of control

## CC(=O)OC1CCC2(C)C(=CCC3C2CCC2(C)C(/C(C)=N/O)=CCC32)C1 (stereo not given)
[6]
  T/C: 96 % of control
[7]
  T/C: 100 % of control
[8]
  T/C: 91 % of control

## Cc1ccc(S(=O)(=O)N(CCC(=N)N)C(C)C)cc1
[9]
  T/C: 91 % of control
[10]
  T/C: 96 % of control
dose: 100.0 mg/kg/injection, schedule: Q01DX009 (ip), vehicle: saline
  T/C: 96 % of control
[11]
  T/C: 104 % of control

## CC(C)(C)NC(=O)C(Br)c1ccccc1 (stereo not given)
dose: 100.0 mg/kg/injection, schedule: Q04DX002 (ip), vehicle: saline with Tween-80
  T/C: 94 % of control
dose: 200.0 mg/kg/injection, schedule: Q04DX002 (ip), vehicle: saline with Tween-80
  T/C: 105 % of control
dose: 400.0 mg/kg/injection, schedule: Q04DX002 (ip), vehicle: saline with Tween-80
  T/C: 94 % of control

## CN(C)CC(CN1c2ccccc2Sc2ccccc21)N(C)C (stereo not given)
dose: 6.25 mg/kg/injection, schedule: Q01DX009 (ip), vehicle: saline
  T/C: 94 % of control
dose: 12.5 mg/kg/injection, schedule: Q01DX009 (ip), vehicle: saline
  T/C: 105 % of control
[9]
  T/C: 92 % of control
dose: 25.0 mg/kg/injection, schedule: Q04DX003 (ip), vehicle: saline
  T/C: 96 % of control
[10]
  T/C: 101 % of control
dose: 50.0 mg/kg/injection, schedule: Q04DX003 (ip), vehicle: saline
  T/C: 93 % of control
[11]
  T/C: 90 % of control

## CN(C)C(=O)CCCc1ccc(N(CCCl)CCCl)cc1
dose: 4.0 mg/kg/injection, schedule: Q12HX018 (ip), vehicle: other
  T/C: 108 % of control
dose: 6.0 mg/kg/injection, schedule: Q12HX018 (ip), vehicle: other
  T/C: 97 % of control
dose: 8.0 mg/kg/injection, schedule: Q12HX018 (ip), vehicle: other
  T/C: 103 % of control
[12]
  T/C: 123 % of control
[13]
  T/C: 118 % of control
[14]
  T/C: 103 % of control

## CC1(OC(=O)c2ccc([N+](=O)[O-])cc2)CC2CCC1C2 (stereo not given)
dose: 100.0 mg/kg/injection, schedule: Q01DX001 (ip), vehicle: saline with Tween-80
  T/C: 98 % of control
dose: 200.0 mg/kg/injection, schedule: Q01DX001 (ip), vehicle: saline with Tween-80
  T/C: 91 % of control
dose: 400.0 mg/kg/injection, schedule: Q01DX001 (ip), vehicle: saline with Tween-80
  T/C: 104 % of control

## C=CCc1ccc(OCCOCCN(C)C2CCCCC2)c(OC)c1
[15]
  T/C: 90 % of control

## Cc1ccccc1[P+](Cc1ccccc1)(c1ccccc1C)c1ccccc1C
dose: 15.0 mg/kg/injection, schedule: Q01DX001 (ip), vehicle: carboxymethylcellulose (CMC)
  T/C: 96 % of control
dose: 30.0 mg/kg/injection, schedule: Q01DX001 (ip), vehicle: carboxymethylcellulose (CMC)
  T/C: 94 % of control
dose: 60.0 mg/kg/injection, schedule: Q01DX001 (ip), vehicle: carboxymethylcellulose (CMC)
  T/C: 94 % of control

## CCN(C(=S)Nc1cccc(OC)c1)c1ccccc1
[3]
  T/C: 90 % of control
[4]
  T/C: 94 % of control

## Cc1ccc(N2C(=O)CNC2=O)cc1
dose: 100.0 mg/kg/injection, schedule: Q01DX001 (ip), vehicle: Klucel (hydroxypropylcellulose) (HPC)
  T/C: 101 % of control
dose: 200.0 mg/kg/injection, schedule: Q01DX001 (ip), vehicle: Klucel (hydroxypropylcellulose) (HPC)
  T/C: 101 % of control
dose: 400.0 mg/kg/injection, schedule: Q01DX001 (ip), vehicle: Klucel (hydroxypropylcellulose) (HPC)
  T/C: 96 % of control

## COC(=O)C12CCC1(Cl)CC2 (stereo not given)
dose: 100.0 mg/kg/injection, schedule: Q01DX001 (ip), vehicle: saline
  T/C: 94 % of control
dose: 200.0 mg/kg/injection, schedule: Q01DX001 (ip), vehicle: saline
  T/C: 95 % of control
dose: 400.0 mg/kg/injection, schedule: Q01DX001 (ip), vehicle: saline
  T/C: 100 % of control

## O=C(NCc1ccccc1Cl)Nc1ccccc1F
[3]
  T/C: 106 % of control
[4]
  T/C: 98 % of control
[5]
  T/C: 115 % of control

## Cc1cc2ccccn2c1C(=O)c1ccccc1
[12]
  T/C: 107 % of control
dose: 100.0 mg/kg/injection, schedule: Q01DX009 (ip), vehicle: carboxymethylcellulose (CMC)
  T/C: 106 % of control
dose: 100.0 mg/kg/injection, schedule: Q04DX002 (ip), vehicle: carboxymethylcellulose (CMC)
  T/C: 98 % of control and 102 % of control
dose: 100.0 mg/kg/injection, schedule: Q04DX003 (ip), vehicle: carboxymethylcellulose (CMC)
  T/C: 102 % of control
[13]
  T/C: 98 % of control
dose: 200.0 mg/kg/injection, schedule: Q01DX009 (ip), vehicle: carboxymethylcellulose (CMC)
  T/C: 96 % of control and 106 % of control
dose: 200.0 mg/kg/injection, schedule: Q04DX002 (ip), vehicle: carboxymethylcellulose (CMC)
  T/C: 94 % of control and 107 % of control
dose: 200.0 mg/kg/injection, schedule: Q04DX003 (ip), vehicle: carboxymethylcellulose (CMC)
  T/C: 102 % of control
[14]
  T/C: 98 % of control
dose: 400.0 mg/kg/injection, schedule: Q01DX009 (ip), vehicle: carboxymethylcellulose (CMC)
  T/C: 95 % of control and 102 % of control
dose: 400.0 mg/kg/injection, schedule: Q04DX002 (ip), vehicle: carboxymethylcellulose (CMC)
  T/C: 93 % of control and 102 % of control
dose: 400.0 mg/kg/injection, schedule: Q04DX003 (ip), vehicle: carboxymethylcellulose (CMC)
  T/C: 102 % of control

## O=[N+]([O-])/C(Br)=C\c1ccc([N+](=O)[O-])cc1
[1]
  T/C: 98 % of control
[2]
  T/C: 105 % of control

## CSC1OC(C(NC(=O)N(C)N=O)C(C)O)C(O)C(O)C1O (stereo not given)
[11]
  T/C: 105 % of control
dose: 200.0 mg/kg/injection, schedule: Q04DX003 (ip), vehicle: saline
  T/C: 118 % of control

## Cc1ccc(NC(=O)Nc2cccc3ccccc23)cc1Cl
[3]
  T/C: 99 % of control
[15]
  T/C: 91 % of control
[4]
  T/C: 94 % of control
[16]
  T/C: 86 % of control
[5]
  T/C: 97 % of control
[17]
  T/C: 90 % of control

## COc1cc(/C=N\N=C(/C)c2ccc(F)cc2)cc(OC)c1OC
[3]
  T/C: 87 % of control
[4]
  T/C: 86 % of control
[5]
  T/C: 89 % of control

## Cc1cc(=O)n(/C=C/C(=O)O)c2ccccc12
[15]
  T/C: 97 % of control
[16]
  T/C: 112 % of control
[17]
  T/C: 94 % of control
